EC50 data for 20 molecules are collected here from patent US9562033B2, “Inhibitors of viral replication, their process of preparation and their therapeutical uses” (LABORATOIRE BIODIM, priority 2012, dated 2017).

The test system of this experiment is NL4-3 strain of HIV-1. The experiment is described as follows: HIV-1 replication inhibition: cyto-protection of MT4 cells infected with NL4-3 virus (CellTiter-Glo viability assay). It counts as cell-based. Conditions: Human immunodeficiency virus 1, NL43, 120 h, concentration leading to 50% of cyto-protection, 5 days incubation. The procedure, abridged: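 MT4 cells were infected with NL4-3 HIV-1 for 2 hours at 37° (moi 0.0001-0.00001), washed, then incubated 5 days at 37° with serially diluted compounds in RPMI at 0.5% DMSO final. Protection of cell viability was read as CellTiter-Glo luminescence.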
On the technique in general: ATP-based viability assays read luminescence as a measure of living cells.

For orientation: EC50 means the concentration at which the effect is half-maximal. As for `Cc1sc(-c2cccnc2)c(-c2ccc3c(c2)CCCO3)c1C(OC(C)(C)C)C(=O)O` (centres unmarked) [Example 8, 2-(tert-butoxy)-2-[4-(3,4-dihydro-2H-1-benzopyran-6-yl)-2-methyl-5-(pyridin-3-yl)thiophen-3-yl)acetic acid], a half-maximal response (EC50) required 270 nM. Take `Cc1ccc(-c2sc(C)c(C(OC(C)(C)C)C(=O)O)c2C2=CCC(C)(C)CC2)nc1` (centres unmarked) [Example 46, 2-(tert-butoxy)-2-[4-(4,4-dimethylcyclohex-1-en-1-yl)-2-methyl-5-(5-methylpyridin-2-yl)thiophen-3-yl]acetic acid]: a half-maximal effect (EC50) was put at 450 nM. The figure for `Cc1sc(-c2nsc(Cl)c2C)c(C2=CCC(C)(C)CC2)c1C(OC(C)(C)C)C(=O)O` (centres unmarked) [Example 62, 2-(tert-butoxy)-2-{2-methyl-4-[4,4-dimethylcyclohex-1-en-1-yl]-5-(5-chloro-4-methyl-isothiazol-3-yl)thiophen-3-yl}acetic acid] is 820 nM; for `Cc1sc(-c2cc(F)c3c(c2)CCCO3)c(-c2cc(F)c3c(c2)CCCO3)c1C(OC(C)(C)C)C(=O)O` (centres unmarked) [Example 75, 2-[4,5-bis(8-fluoro-3,4-dihydro-2H-1-benzopyran-6-yl)-2-methylthiophen-3-yl]-2-(tert-butoxy)acetic acid] it is 2400 nM; for `CCCNC(=O)c1cccc(-c2sc(C)c(C(OC(C)(C)C)C(=O)O)c2C2=CCC(C)(C)CC2)c1` (centres unmarked) [Example 42, 2-(tert-butoxy)-2-[4-(4,4-dimethylcyclohex-1-en-1-yl)-2-methyl-5-[3-(propylcarbamoyl)phenyl]thiophen-3-yl]acetic acid] it is 40 nM.

In the case of `CC(=O)NCc1ccc(-c2sc(C)c(C(OC(C)(C)C)C(=O)O)c2-c2ccc3c(c2)CCCO3)cc1` (centres unmarked) [Example 21, 2-(tert-butoxy)-2-[4-(3,4-dihydro-2H-1-benzopyran-6-yl)-5-[4-(acetamidomethyl)phenyl]-2-methylthiophen-3-yl]acetic acid], a half-maximal response (EC50) required 580 nM. Molecule `Cc1sc(-c2cnc3c(c2)CCCO3)c(-c2ccc3c(c2)CCCO3)c1C(OC(C)(C)C)C(=O)O` (centres unmarked) [Example 4, (tert-butoxy)[4-(3,4-dihydro-2H-1-benzopyran-6-yl)-2-methyl-5-{2H,3H,4H-pyrano[2,3-b]pyridin-6-yl}thiophen-3-yl]acetic acid] returned an EC50 of 180 nM. In the case of `COC1(C)CC=C(c2c(-c3cnc4c(c3)CCCO4)sc(C)c2C(OC(C)(C)C)C(=O)O)CC1` (centres unmarked) [Example 82, 2-(tert-butoxy)-2-[4-(4-methoxy-4-methylcyclohex-1-en-1-yl)-2-methyl-5-{2H,3H,4H-pyrano[2,3-b]pyridin-6-yl}thiophen-3-yl]acetic acid], the response was half-maximal at 1000 nM (EC50).

`Cc1sc(-c2cncnc2)c(C2=CCC(C)(C)CC2)c1C(OC(C)(C)C)C(=O)O` (centres unmarked) [Example 25, 2-(tert-butoxy)-2-[4-(4,4-dimethylcyclohex-1-en-1-yl)-2-methyl-5-(pyrimidin-5-yl)thiophen-3-yl]acetic acid] had an EC50 of 190 nM. Molecule `Cc1sc(-c2ccccc2)c(-c2ccc3c4c(ccnc24)CCO3)c1C(OC(C)(C)C)C(=O)O` (centres unmarked) [Example 61, 2-(tert-butoxy)-2-[2-methyl-4-(2,3-dihydropyrano[4,3,2-de]quinolin-7-yl)-5-phenyl-thiophen-3-yl]acetic acid] gave an EC50 of 210 nM. Next, `Cc1sc(-c2ccccc2)c(-c2ccc3c(c2)CCCO3)c1C(OC(C)(C)C)C(=O)O` (centres unmarked) [Example 1, 2-(tert-butoxy)-2-[4-(3,4-dihydro-2H-1-benzopyran-6-yl)-2-methyl-5-phenylthiophen-3-yl]acetic acid]: 260 nM; `CCCc1sc(C)c(C(OC(C)(C)C)C(=O)O)c1-c1ccc2c(c1)CCCO2` (centres unmarked) [Example 65]: 1400 nM; `Cc1sc(-n2cccn2)c(C2=CCC(C)(C)CC2)c1C(OC(C)(C)C)C(=O)O` (centres unmarked) [Example 50, 2-(tert-butoxy)-2-[4-(4,4-dimethylcyclohex-1-en-1-yl)-2-methyl-5-(1H-pyrazol-1-yl)thiophen-3-yl]acetic acid]: 770 nM.

`CCCn1cc(-c2sc(C)c(C(OC(C)(C)C)C(=O)O)c2C2=CCC(C)(C)CC2)ccc1=O` (centres unmarked) [Example 35] showed an EC50 of 340 nM. The figure for `Cc1sc(-c2cnn(Cc3ccccc3)c2)c(-c2ccc3c(c2)CCCO3)c1C(OC(C)(C)C)C(=O)O` (centres unmarked) [Example 80, 2-[5-(1-benzyl-1H-pyrazol-4-yl)-4-(3,4-dihydro-2H-1-benzopyran-6-yl)-2-methylthiophen-3-yl]-2-(tert-butoxy)acetic acid] is 6200 nM. Regarding `Cc1sc(C2=CCCCC2)c(C2=CCC(C)(C)CC2)c1C(OC(C)(C)C)C(=O)O` (centres unmarked) [Example 57, 2-(tert-butoxy)-2-[4-(4,4-dimethylcyclohex-1-en-1-yl)-5-(cyclohexen-1-yl)-2-methylthiophen-3-yl]acetic acid], the EC50 is 1200 nM.

Turning to `Cc1sc(-c2ccc(C(N)=O)cc2)c(C2=CCC(C)(C)CC2)c1C(OC(C)(C)C)C(=O)O` (centres unmarked) [Example 27, 2-(tert-butoxy)-2-[5-(4-carbamoylphenyl)-4-(4,4-dimethylcyclohex-1-en-1-yl)-2-methylthiophen-3-yl]acetic acid], the EC50 is 90 nM.

In turn, `Cc1sc(-c2ccc(C(=O)N(C)C)cc2)c(C2=CCC(C)(C)CC2)c1C(OC(C)(C)C)C(=O)O` (centres unmarked) [Example 76] showed an EC50 of 3300 nM. Turning to `Cc1ccnc(-c2sc(C)c(C(OC(C)(C)C)C(=O)O)c2C2=CCC(C)(C)CC2)c1` (centres unmarked) [Example 72, 2-(tert-butoxy)-2-{2-methyl-4-[4,4-dimethylcyclohex-1-en-1-yl]-5-(4-methylpyridin-2-yl)thiophen-3-yl}acetic acid], it took 2300 nM to reach a half-maximal effect (EC50). `COc1ccc(-c2sc(C)c(C(OC(C)(C)C)C(=O)O)c2-c2ccc3c(c2)CCCO3)cn1` (centres unmarked) [Example 79, 2-(tert-butoxy)-2-[4-(3,4-dihydro-2H-1-benzopyran-6-yl)-5-(6-methoxypyridin-3-yl)-2-methylthiophen-3-yl]acetic acid]: the EC50 turned out to be 1500 nM.
